tested on: thyroid hormone-regulated promoter (TRE) luciferase in HepG2 hepatocarcinoma cell; experiment: T3 promoter assay cell test (luciferase reporter); type: cell-based; conditions: Homo sapiens; stably transfected HepG2 cells, luciferase induction; one range stated for the listed examples together; read-out: effect in the T3 promoter assay cell test
Experimental: The activity of the compounds according to the invention can be tested, for example, in vitro using the T3 Promoter Assay Cell test, which is described below:
The test is carried out using a stably transfected human HepG2 hepatocarcinoma cell which expresses a luciferase gene under the control of a thyroid hormone-regulated promoter. The vector which is used for the transfection carries a minimal thymidine kinase promoter, containing a thyroid hormone-responsive element (TRE) which consists of two inverted palindromes of in each case 12 bp and an 8 bp spacer, upstream of the luciferase gene.
For the test, the cell cultures are sown, in Eagle's minimal essential medium containing the following additions: glutamine, tricine [N(tris-(hydroxymethyl)-methyl)glycine], sodium pyruvate, non essential amino acids, (L-Ala, L-Asn, L-Asp, L-Pro, L-Ser, L-Glu, Gly), insulin, selenium and transferrin, in 96-well plates. The cultures are grown for 48 hours at 37° C. and under a 10% CO2 atmosphere. After that, serial dilutions of test substance or reference compound (T3, T4) and costimulator retinoic acid are added to the test cultures and the latter are incubated for a further 48 or 72 hours as before. Each substance concentration is tested in four replicates. In order to determine the luciferase which is induced by T3 or other substances, the cells are then lyzed by adding a buffer containing Triton and luciferin (from Promega) and immediately measured luminometrically.

EC50, 0.5 to 240 nM:
CCOC(=O)Cc1coc2c(C)c(Oc3ccc(OC)c(C(C)C)c3)c(C)cc12 [Example 18, Ethyl 2-[6-(3-isopropyl-4-methoxyphenoxy)-5,7-dimethyl-1-benzofuran-3-yl]acetate]
CCOC(=O)c1cc2c(Br)c(Oc3ccc(O)c(C(=O)c4ccc(F)cc4)c3)c(Br)cc2o1 [Example 32, Ethyl 4,6-dibromo-5-[3-(4-fluorobenzoyl)-4-hydroxyphenoxy]-1-benzofuran-2-carboxylate]
CCOC(=O)CC1Cc2c(cc(C)c(Oc3ccc(O)c(C(C)C)c3)c2C)O1 (stereo not shown) [Example 28, Ethyl [5-(4-hydroxy-3-isopropylphenoxy)-4,6-dimethyl-2,3-dihydro-1-benzofuran-2-yl]acetate]
Cc1cc2oc(C(=O)O)cc2c(C)c1Oc1ccc(O)c(C(C)C)c1 [Example 17, 5-(4-Hydroxy-3-isopropylphenoxy)-4,6-dimethyl-1-benzofuran-2-carboxylic acid]

— US7015246B2, “Benzofuran derivatives” (Bayer Aktiengesellschaft, priority 2001, dated 2006)
